A word on the IC50: it is the point on the concentration scale where inhibition reaches its midpoint.

Where “and” joins values, the source holds several entries; their conditions need not be identical. Equal entries are not always repeated. Records with an inconclusive call do not appear. Calls of active or inactive are those of the source.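 The calls were made as follows: active = valid dose-response fit whose half-maximal growth-inhibiting concentration is at or below a set limit above the top tested dose; inconclusive = flat fit with effect between 30 and 70%, or poor fit; inactive = half-maximal concentration above a set limit.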

Assay [1] has as its system Clostridioides difficile clinical isolate growth, OD600, 24 h. As to the kind of experiment: antibacterial activity against Clostridioides difficile – 10-point retest, dose response (AID 1259246).
Experiment in assay [2]: as above
Conditions: Clostridioides difficile clinical isolate growth, OD600, 24 h.

With `O=C(NCC[C@H]1CC[C@@H](NC(=O)C2CC2)[C@@H](CO)O1)Nc1ccc(C(F)(F)F)cc1`, the half-maximal inhibitory concentration (IC50) in assay [1] was 8.52 µM. In addition, the activity change, negative = inhibition in assay [2] (at 120 µM (top of the series)) was 4.63% (inactive).
The corresponding values for `CO[C@H]1CN(C)C(=O)c2ccc(NC(=O)Nc3cc(Cl)cc(Cl)c3)cc2OC[C@@H](C)NC[C@H]1C` are 11.6 µM and 23.1% (inactive).
For `O=C(NCC[C@@H]1CC[C@H](NC(=O)C2CC2)[C@@H](CO)O1)Nc1ccc(C(F)(F)F)cc1` the same measures were 8.56 µM and 2.87% (inactive).
For the molecule `C[C@@H]1CN([C@@H](C)CO)C(=O)Cc2cc(NC(=O)CCCN(C)C)ccc2O[C@@H]1CN(C)Cc1ccc(-c2ccccc2)cc1`, in assay [1], the IC50 was 7.29 µM. Further, the activity change, negative = inhibition in assay [2] (at 110 µM (top of the series)) is 88.3% (inactive).
On to `O=C(NCC[C@H]1CC[C@@H](NC(=O)C2CC2)[C@H](CO)O1)Nc1ccc(C(F)(F)F)cc1`, for which the IC50 in assay [1] is 13.5 µM. For the same molecule, the activity change, negative = inhibition in assay [2] (at 120 µM (top of the series)) was -4.12% (inactive).
The corresponding values for `CO[C@@H]1CN(C)C(=O)c2ccc(NC(=O)Nc3cc(Cl)cc(Cl)c3)cc2OC[C@H](C)NC[C@@H]1C` are 74.6 µM and 4.74% (inactive).
As for `CO[C@H]1CN(C)C(=O)c2ccc(NC(=O)Nc3cc(Cl)cc(Cl)c3)cc2OC[C@@H](C)NC[C@@H]1C`, the IC50 in assay [1] was 34.1 µM. The activity change, negative = inhibition in assay [2] (at 30 µM (top of the series)) was 32.6% (inactive).
Regarding `O=C(NCC[C@@H]1CC[C@@H](NC(=O)C2CC2)[C@@H](CO)O1)Nc1ccc(C(F)(F)F)cc1`, the IC50 in assay [1] is 6.63 µM. In addition, in assay [2] (at 120 µM (top of the series)), the activity change, negative = inhibition was 2.33% (inactive).
With `CC(C)Cc1ccc(CN2CC[C@@H](NS(=O)(=O)c3ccccc3)C2)cc1`, the 50% inhibitory concentration (IC50) in assay [1] is 56 µM. The activity change, negative = inhibition in assay [2] (at 60 µM (top of the series)) was 4.46% (inactive).
`O=C(NCC[C@H]1CC[C@H](NC(=O)C2CC2)[C@H](CO)O1)Nc1ccc(C(F)(F)F)cc1`: the IC50 in assay [1] is 28.4 µM. Further, the activity change, negative = inhibition in assay [2] (at 120 µM (top of the series)) was -1.84% (inactive).
The corresponding values for `Cc1ccc(F)cc1S(=O)(=O)N[C@@H]1CCN(Cc2ccc(OC(C)C)cc2)C1` are 29.6 µM and 21.4% (inactive).
As for `COc1cccc(C#Cc2ccc([C@H]3[C@@H](CO)N(C(=O)C4CCCCC4)[C@H]3C#N)cc2)c1`, the IC50 in assay [1] was 77.8 µM. The activity change, negative = inhibition in assay [2] (at 75 µM (top of the series)) is 12.9% (inactive).
For the molecule `C[C@H]1CN([C@@H](C)CO)S(=O)(=O)c2ccc(/C=C/c3ccccc3)cc2O[C@@H]1CN(C)Cc1ccc(C(=O)O)cc1`, the IC50 in assay [1] is 62.8 µM.
Same read-out and setting: to `CO[C@H](CN(C)S(=O)(=O)c1cn(C)cn1)[C@@H](C)CN(C(=O)Nc1ccc(C(F)(F)F)cc1)[C@H](C)CO` belongs 12.6 µM; to `O=C(NCC[C@H]1CC[C@H](NC(=O)C2CC2)[C@@H](CO)O1)Nc1ccc(C(F)(F)F)cc1`, 15.4 µM; to `CO[C@H]1CN(C)C(=O)c2cc(NC(=O)Nc3cc(Cl)cc(Cl)c3)ccc2OC[C@H](C)NC[C@@H]1C`, 34 µM and 55 µM.
Turning to `CO[C@@H](CN(C)C(=O)C1CC1)[C@H](C)CN(C(=O)Nc1ccc(C(F)(F)F)cc1)[C@@H](C)CO`, the IC50 in assay [1] is 6.58 µM.
The same measure, in the same setting: to `Cc1cc(C(=O)Nc2cccc3c2O[C@@H](CN(C)Cc2ccc(-c4ccccc4)cc2)[C@H](C)CN([C@@H](C)CO)C3=O)n(C)n1` belongs 17.5 µM.
Same read-out and setting: the value for `O=C(C[C@@H]1CC[C@H]2[C@@H](COC[C@H](O)CN2S(=O)(=O)c2ccccc2)O1)NCC1CCCCC1` was 35.1 µM; that for `C[C@@H]1CN([C@H](C)CO)S(=O)(=O)c2ccc(C#CCC3CCCC3)cc2O[C@H]1CN(C)C` was 69.3 µM; that for `C[C@H]1CN([C@@H](C)CO)S(=O)(=O)c2ccc(C#CCC3CCCC3)cc2O[C@H]1CN(C)C` was 70.9 µM.
Turning to `C[C@@H]1CN([C@@H](C)CO)S(=O)(=O)c2ccc(/C=C/c3ccccc3)cc2O[C@H]1CN(C)Cc1ccc(C(=O)O)cc1`, in assay [1], the IC50 was 3.3 µM.
On the same count and under the same terms, to `COc1ccc(NC(=O)Nc2cccc3c2O[C@H](CN(C)Cc2ccc(Oc4ccccc4)cc2)[C@H](C)CN([C@@H](C)CO)C3=O)cc1` belongs 2.47 µM and 0.531 µM and 0.465 µM.
Still for that read-out and setting: to `C[C@@H]1CN([C@@H](C)CO)C(=O)c2cccc(NC(=O)Nc3ccc4c(c3)OCO4)c2O[C@@H]1CN(C)Cc1ccc(-c2ccccc2)cc1` belongs 3.03 µM.
On the same count and under the same terms, the value for `C[C@@H]1CN([C@H](C)CO)S(=O)(=O)c2ccc(C#CCC3CCCC3)cc2O[C@H]1CN(C)Cc1ccc(C(=O)O)cc1` was 76.2 µM.
Turning to `O=C(NCC[C@@H]1CC[C@H](NC(=O)C2CC2)[C@H](CO)O1)Nc1ccc(C(F)(F)F)cc1`, in assay [1], the IC50 was 15 µM. Also, the activity change, negative = inhibition in assay [2] (at 120 µM (top of the series)) is -0.062% (inactive).
In the case of `C[C@H](CO)N1C[C@H](C)[C@@H](CN(C)Cc2ccc(-c3ccccc3)cc2)Oc2ccc(NC(=O)CCCN(C)C)cc2CC1=O`, in assay [1], the IC50 was 68.7 µM.
`C[C@@H]1CCCCO[C@H](CN(C)CC2CCCCC2)[C@H](C)CN([C@H](C)CO)C(=O)c2cc(NC(=O)Nc3ccc(C(F)(F)F)cc3)ccc2O1`: in assay [1], the IC50 was 5.06 µM and 44.8 µM and 31.8 µM.
